# Measurements as given in patent US20250248933A1, “Prophylactic and Therapeutic Agents for Upper Respiratory Tract Infections Caused by Influenza and Other Enveloped Viruses” (priority 2020, published 2025).
# How the values were obtained:
# [1] = in vivo; cited from earlier work
# [2] = test system: common cold germs; conditions: cited from earlier work
# [3] = test system: influenza viruses; conditions: determined by the present inventor
# [4] = test system: rhinovirus; conditions: cited from earlier work
# [5] = test system: common colds; conditions: 37 zinc-treated subjects; cited from earlier work
# [6] = test system: rhinoviruses; conditions: cited from earlier work
compound,measurement,setting,value
CCCc1cc(=O)oc2c3c(c4c(c12)OC(C)(C)C=C4)O[C@H](C)[C@@H](C)[C@@H]3O [Calanolide A],safety and tolerability,[1],safe and well tolerated
"CCO [Ethanol, ethanol]",killing of common cold germs in oral mucosa,[2],known to kill
same,ability to kill influenza viruses,[3],ineffective
same,activity against rhinovirus,[4],works well
zinc,subjects asymptomatic after seven days,[5],86%
same,inhibition of replication of rhinoviruses,[6],inhibit the replication
